Reference: the kinase profiling compilation of Christmann-Franck et al. (2016)

What was measured:
Assay in all cases: radiometric filter-binding kinase assay, Kinase HotSpot
Settings in all cases: compound 0.5 µM; ATP 10 µM
MYLK2 (human) = MYLK2 (human) (UniProt Q9H1R3)
NEK7 (human) = NEK7 (human) (UniProt Q8TDX7)
MAP3K2 (human) = MAP3K2 (human) (UniProt Q9Y2U5)
CSNK1E (human) = CSNK1E (human) (UniProt P49674)
CDK1 CCNA2 (human) = CDK1 CCNA2 (human) (UniProt P06493+P20248)
PRKACA (human) = PRKACA (human) (UniProt P17612)
STK11 (human) = STK11 (human) (UniProt Q15831)
SRPK1 (human) = SRPK1 (human) (UniProt Q96SB4)
ACVR1B (human) = ACVR1B (human) (UniProt P36896)
PRKCB2 (human) = PRKCB2 (human) (UniProt P05771)
DYRK1A (human) = DYRK1A (human) (UniProt Q13627)
STK17A (human) = STK17A (human) (UniProt Q9UEE5)
CAMKK2 (human) = CAMKK2 (human) (UniProt Q96RR4)
PAK1 (human) = PAK1 (human) (UniProt Q13153)
LIMK1 (human) = LIMK1 (human) (UniProt P53667)
Chain of LIMK1 (human) (P53667 whole entry, looked up): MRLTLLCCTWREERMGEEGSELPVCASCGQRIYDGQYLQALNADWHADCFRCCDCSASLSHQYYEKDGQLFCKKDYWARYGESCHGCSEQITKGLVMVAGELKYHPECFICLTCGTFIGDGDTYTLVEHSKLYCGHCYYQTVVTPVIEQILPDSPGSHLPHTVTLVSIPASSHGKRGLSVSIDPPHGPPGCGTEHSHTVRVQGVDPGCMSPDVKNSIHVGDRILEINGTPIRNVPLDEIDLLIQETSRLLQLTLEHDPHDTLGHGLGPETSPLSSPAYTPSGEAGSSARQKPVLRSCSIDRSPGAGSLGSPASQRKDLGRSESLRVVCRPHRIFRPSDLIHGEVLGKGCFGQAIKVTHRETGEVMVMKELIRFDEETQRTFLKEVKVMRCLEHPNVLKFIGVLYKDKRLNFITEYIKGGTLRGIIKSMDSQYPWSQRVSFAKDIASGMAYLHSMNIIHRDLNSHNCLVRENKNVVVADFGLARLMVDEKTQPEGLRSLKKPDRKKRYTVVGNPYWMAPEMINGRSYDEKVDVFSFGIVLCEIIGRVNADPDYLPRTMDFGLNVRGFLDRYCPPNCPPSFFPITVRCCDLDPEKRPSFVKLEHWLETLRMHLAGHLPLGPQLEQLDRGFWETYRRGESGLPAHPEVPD

PTK6 (human) = PTK6 (human) (UniProt Q13882)
PTK2 (human) = PTK2 (human) (UniProt Q05397)
CDK5 CDK5R1 p25 (human) = CDK5 CDK5R1 p25 (human) (UniProt Q00535+Q15078)
DMPK (human) = DMPK (human) (UniProt Q09013)
NEK1 (human) = NEK1 (human) (UniProt Q96PY6)
PRKCH (human) = PRKCH (human) (UniProt P24723)
PRKCE (human) = PRKCE (human) (UniProt Q02156)
Chain of PRKCE (human) (Q02156 whole entry, looked up): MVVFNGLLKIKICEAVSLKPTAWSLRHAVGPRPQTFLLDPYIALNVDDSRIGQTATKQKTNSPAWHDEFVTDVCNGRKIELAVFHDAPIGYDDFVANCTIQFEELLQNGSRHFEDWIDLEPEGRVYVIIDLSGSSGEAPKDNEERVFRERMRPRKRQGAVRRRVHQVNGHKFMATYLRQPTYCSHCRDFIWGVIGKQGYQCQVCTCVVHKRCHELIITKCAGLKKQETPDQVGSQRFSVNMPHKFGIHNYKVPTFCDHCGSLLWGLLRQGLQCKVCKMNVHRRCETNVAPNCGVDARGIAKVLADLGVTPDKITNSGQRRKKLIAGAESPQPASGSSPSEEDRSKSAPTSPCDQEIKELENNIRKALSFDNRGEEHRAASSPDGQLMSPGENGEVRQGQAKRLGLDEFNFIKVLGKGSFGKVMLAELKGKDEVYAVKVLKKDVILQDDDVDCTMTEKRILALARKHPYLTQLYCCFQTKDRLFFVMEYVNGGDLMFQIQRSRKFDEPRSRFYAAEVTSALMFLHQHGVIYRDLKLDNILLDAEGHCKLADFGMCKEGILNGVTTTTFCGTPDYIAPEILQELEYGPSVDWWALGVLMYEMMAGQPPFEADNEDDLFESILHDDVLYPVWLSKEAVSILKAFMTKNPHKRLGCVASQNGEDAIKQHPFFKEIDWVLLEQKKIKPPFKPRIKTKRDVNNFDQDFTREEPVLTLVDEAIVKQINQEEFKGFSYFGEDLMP

BRSK1 (human) = BRSK1 (human) (UniProt Q8TDC3)
PHKG2 (human) = PHKG2 (human) (UniProt P15735)
ADRBK1 (human) = ADRBK1 (human) (UniProt P25098)
GSK3A (human) = GSK3A (human) (UniProt P49840)
CLK1 (human) = CLK1 (human) (UniProt P49759)
PHKG1 (human) = PHKG1 (human) (UniProt Q16816)
DDR2 (human) = DDR2 (human) (UniProt Q16832)
PKN2 (human) = PKN2 (human) (UniProt Q16513)
RPS6KA2 KD1 KD2 (human) = RPS6KA2 KD1 KD2 (human) (UniProt Q15349)
CAMK1 (human) = CAMK1 (human) (UniProt Q14012)
RPS6KA6 KD1 KD2 (human) = RPS6KA6 KD1 KD2 (human) (UniProt Q9UK32)
FGFR1 (human) = FGFR1 (human) (UniProt P11362)
Chain of FGFR1 (human) (P11362 whole entry, looked up): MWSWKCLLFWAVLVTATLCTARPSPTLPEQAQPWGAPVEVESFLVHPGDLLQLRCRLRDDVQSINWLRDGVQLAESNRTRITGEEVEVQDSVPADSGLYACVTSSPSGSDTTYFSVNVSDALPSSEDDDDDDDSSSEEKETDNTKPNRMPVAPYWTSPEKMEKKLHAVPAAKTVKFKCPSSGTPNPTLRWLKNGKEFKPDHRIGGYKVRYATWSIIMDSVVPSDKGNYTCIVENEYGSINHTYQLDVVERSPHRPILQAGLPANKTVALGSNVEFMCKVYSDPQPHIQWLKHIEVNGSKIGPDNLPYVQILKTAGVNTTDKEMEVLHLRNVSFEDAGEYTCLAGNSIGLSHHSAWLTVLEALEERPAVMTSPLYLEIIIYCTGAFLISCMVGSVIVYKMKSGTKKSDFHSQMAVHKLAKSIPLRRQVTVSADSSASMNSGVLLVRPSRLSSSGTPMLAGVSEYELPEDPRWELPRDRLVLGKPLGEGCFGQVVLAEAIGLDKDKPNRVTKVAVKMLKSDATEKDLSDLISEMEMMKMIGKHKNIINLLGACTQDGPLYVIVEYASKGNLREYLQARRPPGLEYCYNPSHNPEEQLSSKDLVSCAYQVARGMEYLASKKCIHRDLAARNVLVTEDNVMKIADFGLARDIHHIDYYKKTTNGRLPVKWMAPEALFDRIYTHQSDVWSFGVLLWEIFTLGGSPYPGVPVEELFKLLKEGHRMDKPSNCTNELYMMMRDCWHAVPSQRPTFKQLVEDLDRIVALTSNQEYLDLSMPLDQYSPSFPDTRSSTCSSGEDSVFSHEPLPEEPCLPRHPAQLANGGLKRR

ERBB2 (human) = ERBB2 (human) (UniProt P04626)
PAK7 (human) = PAK7 (human) (UniProt Q9P286)
Chain of PAK7 (human) (Q9P286 whole entry, looked up): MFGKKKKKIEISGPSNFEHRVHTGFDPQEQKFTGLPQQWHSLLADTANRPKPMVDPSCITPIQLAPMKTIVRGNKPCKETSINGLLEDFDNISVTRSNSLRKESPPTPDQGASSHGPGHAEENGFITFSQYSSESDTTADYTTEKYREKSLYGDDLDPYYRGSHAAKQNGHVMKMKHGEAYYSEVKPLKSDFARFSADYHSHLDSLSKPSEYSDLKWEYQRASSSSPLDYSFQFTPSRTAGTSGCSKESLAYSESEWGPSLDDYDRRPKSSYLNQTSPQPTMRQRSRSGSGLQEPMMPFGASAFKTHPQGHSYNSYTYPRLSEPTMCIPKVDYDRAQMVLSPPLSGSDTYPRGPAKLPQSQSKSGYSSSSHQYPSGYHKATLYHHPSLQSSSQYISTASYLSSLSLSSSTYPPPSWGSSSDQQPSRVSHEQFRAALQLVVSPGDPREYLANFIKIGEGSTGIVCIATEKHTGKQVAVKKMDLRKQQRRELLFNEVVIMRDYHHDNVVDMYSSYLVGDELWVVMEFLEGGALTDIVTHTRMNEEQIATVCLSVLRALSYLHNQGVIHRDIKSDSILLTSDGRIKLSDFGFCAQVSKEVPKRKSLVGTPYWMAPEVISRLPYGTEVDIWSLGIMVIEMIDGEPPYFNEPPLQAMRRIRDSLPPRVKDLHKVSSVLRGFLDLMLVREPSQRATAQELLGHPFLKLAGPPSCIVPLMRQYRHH

MAPK13 (human) = MAPK13 (human) (UniProt O15264)
Chain of MAPK13 (human) (O15264 whole entry, looked up): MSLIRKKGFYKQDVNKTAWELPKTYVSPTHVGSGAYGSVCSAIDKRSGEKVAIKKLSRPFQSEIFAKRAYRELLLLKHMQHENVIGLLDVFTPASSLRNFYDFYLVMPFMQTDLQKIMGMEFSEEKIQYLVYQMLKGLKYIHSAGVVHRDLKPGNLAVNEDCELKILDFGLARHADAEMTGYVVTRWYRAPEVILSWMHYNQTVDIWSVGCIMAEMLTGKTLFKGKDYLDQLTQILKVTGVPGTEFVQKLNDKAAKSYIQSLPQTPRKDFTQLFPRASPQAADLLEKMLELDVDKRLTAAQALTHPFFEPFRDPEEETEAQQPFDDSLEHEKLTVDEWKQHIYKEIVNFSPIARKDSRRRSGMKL

DYRK3 (human) = DYRK3 (human) (UniProt O43781)
INSRR (human) = INSRR (human) (UniProt P14616)
MKNK2 (human) = MKNK2 (human) (UniProt Q9HBH9)
KDR (human) = KDR (human) (UniProt P35968)
FRK (human) = FRK (human) (UniProt P42685)

Chain of MYLK2 (human) (Q9H1R3 whole entry, looked up): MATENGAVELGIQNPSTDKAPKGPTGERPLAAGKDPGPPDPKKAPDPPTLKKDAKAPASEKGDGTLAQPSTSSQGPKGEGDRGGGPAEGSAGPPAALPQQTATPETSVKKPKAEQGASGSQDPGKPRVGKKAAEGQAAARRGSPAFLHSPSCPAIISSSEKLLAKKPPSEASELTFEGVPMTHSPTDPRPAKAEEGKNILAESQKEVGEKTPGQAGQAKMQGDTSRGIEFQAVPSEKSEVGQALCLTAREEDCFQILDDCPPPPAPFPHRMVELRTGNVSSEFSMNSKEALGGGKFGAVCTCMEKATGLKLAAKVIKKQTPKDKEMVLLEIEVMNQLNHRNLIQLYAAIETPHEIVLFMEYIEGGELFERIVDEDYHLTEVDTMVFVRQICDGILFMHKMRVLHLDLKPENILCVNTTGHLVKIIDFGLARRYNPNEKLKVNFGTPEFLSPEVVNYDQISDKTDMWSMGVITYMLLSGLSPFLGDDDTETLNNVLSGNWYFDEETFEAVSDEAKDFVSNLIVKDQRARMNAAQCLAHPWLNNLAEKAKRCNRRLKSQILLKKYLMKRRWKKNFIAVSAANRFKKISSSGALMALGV
Chain of CSNK1E (human) (P49674 whole entry, looked up): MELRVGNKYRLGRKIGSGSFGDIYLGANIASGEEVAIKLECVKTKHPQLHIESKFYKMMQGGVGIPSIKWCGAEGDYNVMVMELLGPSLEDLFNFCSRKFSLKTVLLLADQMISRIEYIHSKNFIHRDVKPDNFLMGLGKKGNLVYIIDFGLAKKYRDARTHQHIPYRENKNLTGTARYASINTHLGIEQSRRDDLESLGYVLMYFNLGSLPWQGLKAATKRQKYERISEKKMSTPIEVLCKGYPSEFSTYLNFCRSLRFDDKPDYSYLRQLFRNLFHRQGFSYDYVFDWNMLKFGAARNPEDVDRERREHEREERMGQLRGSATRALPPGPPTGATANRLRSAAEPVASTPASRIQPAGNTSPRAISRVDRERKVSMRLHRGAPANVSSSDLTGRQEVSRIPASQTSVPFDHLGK
Chain of MAP3K2 (human) (Q9Y2U5 whole entry, looked up): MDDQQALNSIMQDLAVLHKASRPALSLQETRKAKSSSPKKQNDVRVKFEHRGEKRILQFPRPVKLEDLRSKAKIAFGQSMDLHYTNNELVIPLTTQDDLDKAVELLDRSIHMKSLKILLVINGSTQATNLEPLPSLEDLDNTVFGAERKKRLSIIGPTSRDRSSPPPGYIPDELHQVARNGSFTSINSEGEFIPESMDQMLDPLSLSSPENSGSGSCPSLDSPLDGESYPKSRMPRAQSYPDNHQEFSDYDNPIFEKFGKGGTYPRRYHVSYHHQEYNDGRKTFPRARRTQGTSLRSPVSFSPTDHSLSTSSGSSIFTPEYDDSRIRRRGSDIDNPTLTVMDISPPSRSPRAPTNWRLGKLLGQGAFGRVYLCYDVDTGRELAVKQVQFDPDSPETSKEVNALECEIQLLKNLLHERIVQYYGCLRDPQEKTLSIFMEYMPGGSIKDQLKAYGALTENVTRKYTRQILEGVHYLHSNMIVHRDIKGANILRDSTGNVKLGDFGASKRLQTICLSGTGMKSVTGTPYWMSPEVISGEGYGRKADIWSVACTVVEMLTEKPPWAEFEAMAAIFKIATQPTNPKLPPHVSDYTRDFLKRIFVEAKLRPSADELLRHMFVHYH

SMILES	residual activity (NEK7 (human))	residual activity (MAP3K2 (human))	residual activity (CSNK1E (human))	residual activity (CDK1 CCNA2 (human))	residual activity (STK11 (human))	residual activity (SRPK1 (human))	residual activity (ACVR1B (human))	residual activity (PRKCB2 (human))	residual activity (STK17A (human))	residual activity (CAMKK2 (human))	residual activity (PAK1 (human))	residual activity (PTK6 (human))	residual activity (NEK1 (human))	residual activity (PRKCH (human))	residual activity (PRKCE (human))	residual activity (BRSK1 (human))	residual activity (PHKG2 (human))	residual activity (ADRBK1 (human))	residual activity (CLK1 (human))	residual activity (PHKG1 (human))	other results
CNC(=O)c1cc(Oc2ccc(NC(=O)Nc3ccc(Cl)c(C(F)(F)F)c3)cc2)ccn1	98.2%	109%	95.9%	100%	104%	98.6%	102%	97.5%	96%	103%	108%	96.9%	88.8%	107%	96.4%	95.8%	91.3%	112%	97.7%	94.3%	residual activity (MYLK2 (human)): 96.1%; residual activity (PRKACA (human)): 92.6%; residual activity (DYRK1A (human)): 103%; residual activity (LIMK1 (human)): 76.8%; residual activity (PTK2 (human)): 102%; residual activity (CDK5 CDK5R1 p25 (human)): 97.2%; residual activity (DMPK (human)): 93.2%; residual activity (GSK3A (human)): 103%; residual activity (DDR2 (human)): 3.41%; residual activity (PKN2 (human)): 94.2%; residual activity (RPS6KA2 KD1 KD2 (human)): 93.3%; residual activity (CAMK1 (human)): 106%; residual activity (RPS6KA6 KD1 KD2 (human)): 97.3%; residual activity (FGFR1 (human)): 90.9%; residual activity (ERBB2 (human)): 103%; residual activity (PAK7 (human)): 95.9%; residual activity (MAPK13 (human)): 97.5%; residual activity (DYRK3 (human)): 92.7%; residual activity (INSRR (human)): 104%; residual activity (MKNK2 (human)): 70.3%
O=S(=O)(c1cccc2cnccc12)N1CCCNCC1	97.5%	77.8%	99.3%	98.6%	97.6%	92.6%	100%	101%	98.2%	95.9%	94.6%	96.1%	90.3%	84%	76.5%	97.5%	95.4%	105%	96.3%	90.8%	residual activity (MYLK2 (human)): 99.6%; residual activity (DYRK1A (human)): 99.4%; residual activity (LIMK1 (human)): 100%; residual activity (PTK2 (human)): 93.9%; residual activity (KDR (human)): 86.9%; residual activity (DDR2 (human)): 92.2%; residual activity (PKN2 (human)): 103%; residual activity (RPS6KA2 KD1 KD2 (human)): 79.9%; residual activity (CAMK1 (human)): 99.4%; residual activity (RPS6KA6 KD1 KD2 (human)): 94%; residual activity (FGFR1 (human)): 94.6%; residual activity (ERBB2 (human)): 108%; residual activity (PAK7 (human)): 73.1%; residual activity (MAPK13 (human)): 98.8%; residual activity (DYRK3 (human)): 89.1%; residual activity (INSRR (human)): 99.7%; residual activity (FRK (human)): 78.1%; residual activity (MKNK2 (human)): 72%
CCN(CC)CCNC(=O)c1c(C)[nH]c(/C=C2\C(=O)Nc3ccc(F)cc32)c1C	93.5%	51.9%	46.9%	98.4%	97.2%	97%	101%	104%	26.7%	65.3%	118%	84.5%	72.6%	112%	98%	45.1%	20.6%	94.7%	23.3%	5.12%	residual activity (MYLK2 (human)): 7.74%; residual activity (PRKACA (human)): 89.1%; residual activity (DYRK1A (human)): 56.9%; residual activity (LIMK1 (human)): 94.3%; residual activity (DMPK (human)): 97.7%; residual activity (GSK3A (human)): 85.5%; residual activity (DDR2 (human)): 154%; residual activity (PKN2 (human)): 89.1%; residual activity (RPS6KA2 KD1 KD2 (human)): 17.3%; residual activity (CAMK1 (human)): 75.2%; residual activity (RPS6KA6 KD1 KD2 (human)): 17.5%; residual activity (FGFR1 (human)): 66.1%; residual activity (ERBB2 (human)): 105%; residual activity (PAK7 (human)): 81.6%; residual activity (MAPK13 (human)): 92.4%; residual activity (DYRK3 (human)): 58.2%; residual activity (INSRR (human)): 21.7%; residual activity (FRK (human)): 84.4%; residual activity (MKNK2 (human)): 99.3%
Cc1ccc(Nc2nccc(N(C)c3ccc4c(C)n(C)nc4c3)n2)cc1S(N)(=O)=O	101%	110%	97.5%	96.2%	92.1%	100%	100%	96.7%	95.9%	98.5%	89.1%	66.2%	105%	110%	100%	97.2%	96.7%	90.3%	103%	92.5%	residual activity (PRKACA (human)): 94.5%; residual activity (PTK2 (human)): 76%; residual activity (CDK5 CDK5R1 p25 (human)): 95.1%; residual activity (DMPK (human)): 93.5%; residual activity (GSK3A (human)): 101%; residual activity (DDR2 (human)): 36.2%; residual activity (PKN2 (human)): 106%; residual activity (RPS6KA2 KD1 KD2 (human)): 93.2%; residual activity (CAMK1 (human)): 87.4%; residual activity (RPS6KA6 KD1 KD2 (human)): 96.8%; residual activity (ERBB2 (human)): 103%; residual activity (PAK7 (human)): 95.4%; residual activity (MAPK13 (human)): 94.6%; residual activity (DYRK3 (human)): 95.9%; residual activity (INSRR (human)): 96.1%; residual activity (FRK (human)): 58.1%; residual activity (MKNK2 (human)): 107%
CC(C)N(CCC(=O)c1ccc2ccccc2c1)Cc1ccccc1	95.2%	107%	96.1%	92.9%	94.2%	103%	99.5%	101%	104%	85.2%	98.3%	96.4%	81.9%	97.3%	95%	98%	99.9%	106%	109%	91.6%	residual activity (MYLK2 (human)): 100%; residual activity (DYRK1A (human)): 105%; residual activity (LIMK1 (human)): 103%; residual activity (PTK2 (human)): 96.3%; residual activity (CDK5 CDK5R1 p25 (human)): 96.5%; residual activity (DMPK (human)): 108%; residual activity (KDR (human)): 98.9%; residual activity (GSK3A (human)): 98.8%; residual activity (DDR2 (human)): 92.5%; residual activity (PKN2 (human)): 98.7%; residual activity (CAMK1 (human)): 104%; residual activity (RPS6KA6 KD1 KD2 (human)): 97.4%; residual activity (FGFR1 (human)): 99.5%; residual activity (ERBB2 (human)): 98.7%; residual activity (PAK7 (human)): 98.5%; residual activity (MAPK13 (human)): 96.2%; residual activity (DYRK3 (human)): 107%; residual activity (INSRR (human)): 90.1%; residual activity (FRK (human)): 95.8%; residual activity (MKNK2 (human)): 100%
